Results reported in patent publication US12692547B2, “Methods of treating cancers containing fusion genes” (UNIVERSITY OF PITTSBURGH—OF THE COMMONWEALTH SYSTEM OF …, priority 2016, dated 2026).

Tests used:
[1] = tested on: PMF cells (PC3 with inducible MAN2A1-FER-FLAG); assay: Cell death by Annexin V and propidium iodide staining, PMF cells; format: cell-based; details: Homo sapiens
Source text: (§1) FIG. 18. […] Factions of cell death were then quantified by Annexin V and propridium iodide staining. […] Factions of cell death were then quantified by Annexin V and propridium iodide staining. […] Factions of cell death were then quantified by Annexin V and propridium iodide staining.
(§2) Since the kinase activity of MAN2A1-FER and EGFR activation are the drivers of MAN2A1-FER oncogenic activity, it is of interest to examine whether inhibition of the kinase activity of MAN2A1-FER or EGFR interrupts the oncogenic activity of MAN2A1-FER, and thus the growth of the tumors.

HUH7 cells xenograft = assay: Kinase inhibitor treatment of SCID mice xenografted with HUH7 or HUH7/ko cells; format: in vivo, mouse; details: for reduction of final tumor size: HUH7, MAN2A1-FER present, vs DMSO controls, crizotinib 12.5 mg/kg, canertinib 10 mg/kg, 3 times a week, peritoneal injection
Source text: (§3) Treatment of Severe Combined Immunodeficient Mice Xenografted With Cancer Cells. For kinase inhibitor treatment experiments, PMF, GMF, HUH7, and HUH7/ko cells (2×10^7 cells) were xenografted into the subcutaneous region of SCID mice. […] Serial sections of formalin-fixed, paraffin-embedded lung, brain, liver, kidney, vertebra, and lymph node specimens were collected, stained with H&E, and examined microscopically.

PC3 cells xenograft = assay: Kinase inhibitor treatment of SCID mice xenografted with PC3 (PMF) cells; format: in vivo, mouse; details: for reduction of final tumor size: PC3, MAN2A1-FER present, vs DMSO controls, crizotinib 12.5 mg/kg, canertinib 10 mg/kg, 3 times a week, peritoneal injection
Source text: as §3

[2] = tested on: GMF cells (A-172 with inducible MAN2A1-FER-FLAG); assay: Cell death by Annexin V and propidium iodide staining, GMF cells; format: cell-based; details: Homo sapiens, A 172, GMF cells
Source text: as §1, §2

A-172 cells xenograft = assay: Kinase inhibitor treatment of SCID mice xenografted with A-172 (GMF) cells; format: in vivo, mouse; details: for reduction of final tumor size: A-172, MAN2A1-FER present, vs DMSO controls, crizotinib 12.5 mg/kg, canertinib 10 mg/kg, 3 times a week, peritoneal injection
Source text: as §3

[3] = tested on: PC3, A-172 and HUH7 xenografted tumors; assay: Metastasis and mortality of treated SCID mice, all tumors pooled; format: in vivo, mouse; details: for mortality of xenografted mice: tumors positive for MAN2A1-FER
Source text: as §3

[4] = tested on: PC3, A-172 or HUH7 with or without MAN2A1-FER; assay: Killing of cancer cell lines with or without MAN2A1-FER (summary over cell lines); format: cell-based; details: Homo sapiens, read-out: IC50 values (50% inhibitory concentrations)
Source text: as §1, §2

HUH7 cells = assay: Cell death by Annexin V and propidium iodide staining, HUH7 cells and MAN2A1-FER knockout counterpart; format: cell-based; details: Homo sapiens
Source text: as §1, §2

GST-MAN2A1-FER = target: T1, GST-MAN2A1-FER (Homo sapiens, UniProt P16591); assay: Phosphorylation of HisTAG-EGFR aa1-650 by GST-MAN2A1-FER with excessive peptide; format: biochemical; details: excessive amount of peptide; HisTAG-EGFR aa1-650 substrate
T1 construct: while leaving the tyrosine kinase domain in FER largely intact; MAN2A1 N-terminal 703 amino acids (fusion partner, itself N-terminally GST-tagged); made in house; host or cells: Escherichia coli BL21; the other entry of the earlier key: MAN2A1 (Q16706, Alpha-mannosidase 2)

[5] = A-172, MAN2A1-FER not present, same regimen
[6] = MAN2A1-FER negative cells, control 1/18
[7] = all tumors (PC3, A-172, HUH7), MAN2A1-FER present, controls 11/18
[8] = Huh-7, HUH7 KO (MAN2A1-FER knockout)
[9] = Huh-7, HUH7 WT (MAN2A1-FER positive)

T1 sequence (P16591 with tags, fused parts or gaps): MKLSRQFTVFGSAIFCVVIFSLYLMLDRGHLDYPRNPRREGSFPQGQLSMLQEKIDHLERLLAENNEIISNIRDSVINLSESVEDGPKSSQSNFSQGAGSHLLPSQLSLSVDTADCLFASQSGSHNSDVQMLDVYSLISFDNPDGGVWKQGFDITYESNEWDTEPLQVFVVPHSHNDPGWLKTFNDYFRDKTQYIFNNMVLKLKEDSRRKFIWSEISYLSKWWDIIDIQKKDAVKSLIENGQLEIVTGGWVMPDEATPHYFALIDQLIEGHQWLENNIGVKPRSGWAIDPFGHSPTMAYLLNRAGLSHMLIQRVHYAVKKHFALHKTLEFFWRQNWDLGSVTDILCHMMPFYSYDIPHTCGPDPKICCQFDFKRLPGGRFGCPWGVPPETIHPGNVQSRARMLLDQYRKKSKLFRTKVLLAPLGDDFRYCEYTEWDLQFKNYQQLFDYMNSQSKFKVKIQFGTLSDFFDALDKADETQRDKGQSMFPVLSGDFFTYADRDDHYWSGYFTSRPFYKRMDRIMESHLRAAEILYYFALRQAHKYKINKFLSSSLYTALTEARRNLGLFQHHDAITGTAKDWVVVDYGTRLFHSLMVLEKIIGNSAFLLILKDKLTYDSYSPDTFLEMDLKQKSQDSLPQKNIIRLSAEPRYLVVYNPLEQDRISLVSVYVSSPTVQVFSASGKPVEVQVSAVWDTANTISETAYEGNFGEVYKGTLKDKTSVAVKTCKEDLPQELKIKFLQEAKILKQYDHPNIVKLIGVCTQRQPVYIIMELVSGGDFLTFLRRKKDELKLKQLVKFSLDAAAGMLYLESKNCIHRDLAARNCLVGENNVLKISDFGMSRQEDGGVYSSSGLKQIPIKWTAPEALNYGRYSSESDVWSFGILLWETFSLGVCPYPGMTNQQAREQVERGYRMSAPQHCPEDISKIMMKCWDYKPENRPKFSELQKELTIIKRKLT

Row | blocking of phosphorylation of EGFR N-terminus by GST-MAN2A1-FER (GST-MAN2A1-FER) | Compound | IC50 ([1]; Tet+ (MAN2A1-FER-FLAG induced)) | IC50 ([1]; Tet− (no MAN2A1-FER-FLAG)) | reduction of tumor size (HUH7 cells xenograft; HUH7, MAN2A1-FER not present (knockout), same regimen) | reduction of final tumor size (HUH7 cells xenograft) | reduction of tumor size (PC3 cells xenograft; PC3, MAN2A1-FER not present, same regimen) | reduction of final tumor size (PC3 cells xenograft) | IC50 ([2]; Tet+ (MAN2A1-FER-FLAG induced)) | IC50 ([2]; Tet− (no MAN2A1-FER-FLAG)) | reduction of tumor size (A-172 cells xenograft; [5]) | reduction of final tumor size (A-172 cells xenograft) | metastasis (mice with metastasis / mice) [3, 6] | metastasis (mice with metastasis / mice) [3, 7] | mortality of xenografted mice [3] | IC50 [4] | IC50 (HUH7 cells; [8]) | IC50 (HUH7 cells; [9]) | increase of tumor size (A-172 cells xenograft; [5])
1 |  | C=CC(=O)Nc1cc2c(Nc3ccc(F)c(Cl)c3)ncnc2cc1OCCCN1CCOCC1 [canertinib] | 10.9 nM | 25.1 nM | 40.2% | 81.7% | 32.0% | 85.0% | 10.7 nM | 26.5 nM | 19.2% | 73.2% | 2/18 | 0/18 | completely eliminated the mortality | < 15 nM | 30.3 nM | 14.7 nM | 
2 | partially blocked | FLKTIQEVAGYVLIALNTVER [peptide 3] |  |  |  |  |  |  |  |  |  |  |  |  |  |  |  |  | 
3 |  | C[C@@H](Oc1cc(-c2cnn(C3CCNCC3)c2)cnc1N)c1c(Cl)ccc(F)c1Cl [crizotinib] | 20.8 nM | 43.4 nM |  | 80.7% |  | 78.6% | 33.1 nM | 64.5 nM |  | 67.6% | 2/18 | 0/18 | completely eliminated the mortality |  | 52.9 nM | 28.9 nM | 4%
